# Source: US10123993B2, “Cyclic ureas as inhibitors of rock” (BRISTOL-MYERS SQUIBB COMPANY, priority 2015, dated 2018)
# pIC50: −log10 of the molar value.
# Molecular target: ROCK2 (Homo sapiens, UniProt O75116)
# Experiment: ROCK2 kinase inhibition assay (Caliper LABCHIP, FITC peptide substrate)
# Assay type: biochemical
# Conditions: 5 μM ATP, 1.5 μM peptide substrate; value ranges
# Method in brief: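 Rho kinase with 5 μM ATP and 1.5 μM FITC-AHA-AKRRRLSSLRA-OH peptide in HEPES pH 7.5, 20 mM MgCl2, 0.015% Brij-35, 4 mM DTT, DMSO <2%. EDTA stop; phospho and non-phospho peptide separated on LabChip. IC50 from dose-response fit.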
# Sequence of ROCK2 (O75116 whole entry, species assumed): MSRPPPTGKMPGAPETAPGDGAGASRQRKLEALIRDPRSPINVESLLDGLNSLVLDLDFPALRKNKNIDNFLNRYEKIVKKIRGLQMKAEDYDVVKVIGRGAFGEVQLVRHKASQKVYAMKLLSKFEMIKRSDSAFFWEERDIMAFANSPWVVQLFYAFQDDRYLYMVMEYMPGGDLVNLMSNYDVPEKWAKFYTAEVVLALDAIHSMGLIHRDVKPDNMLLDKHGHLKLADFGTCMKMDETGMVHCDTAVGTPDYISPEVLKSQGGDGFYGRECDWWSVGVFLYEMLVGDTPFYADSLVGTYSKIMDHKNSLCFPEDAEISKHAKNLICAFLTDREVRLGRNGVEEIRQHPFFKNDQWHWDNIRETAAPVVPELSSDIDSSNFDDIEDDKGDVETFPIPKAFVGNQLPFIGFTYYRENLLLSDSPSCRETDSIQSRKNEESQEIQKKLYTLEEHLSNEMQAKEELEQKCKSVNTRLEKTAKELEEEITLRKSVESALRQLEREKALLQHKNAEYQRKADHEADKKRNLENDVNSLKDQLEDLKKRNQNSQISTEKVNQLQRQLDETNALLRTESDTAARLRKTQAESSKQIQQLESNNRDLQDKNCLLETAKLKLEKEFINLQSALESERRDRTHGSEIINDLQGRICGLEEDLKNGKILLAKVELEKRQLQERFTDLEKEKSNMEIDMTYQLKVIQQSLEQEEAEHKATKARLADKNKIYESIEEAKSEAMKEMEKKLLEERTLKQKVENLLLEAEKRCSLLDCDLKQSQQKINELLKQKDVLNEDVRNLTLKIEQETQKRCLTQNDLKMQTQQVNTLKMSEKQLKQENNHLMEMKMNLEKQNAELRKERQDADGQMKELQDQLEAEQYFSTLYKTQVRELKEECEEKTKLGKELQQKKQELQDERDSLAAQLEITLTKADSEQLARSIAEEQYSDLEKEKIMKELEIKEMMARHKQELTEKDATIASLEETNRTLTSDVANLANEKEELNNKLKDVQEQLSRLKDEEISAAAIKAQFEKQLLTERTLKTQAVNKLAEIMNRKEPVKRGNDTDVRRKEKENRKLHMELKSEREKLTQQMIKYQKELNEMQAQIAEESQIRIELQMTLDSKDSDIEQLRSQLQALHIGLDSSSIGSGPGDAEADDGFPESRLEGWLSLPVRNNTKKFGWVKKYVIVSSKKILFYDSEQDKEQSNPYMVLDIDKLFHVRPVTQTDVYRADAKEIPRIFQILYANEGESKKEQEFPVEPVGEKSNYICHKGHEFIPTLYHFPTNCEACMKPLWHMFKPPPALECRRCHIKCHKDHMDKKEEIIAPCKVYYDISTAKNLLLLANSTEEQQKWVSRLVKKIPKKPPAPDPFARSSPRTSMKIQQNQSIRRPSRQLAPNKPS
row,Compound,pIC50
1,"O=C1N(c2ccc(-c3cn[nH]c3)cc2)CC(CO)N1Cc1ccccc1 (stereo not shown) [Example 38, 1-(4-(1H-Pyrazol-4-yl)phenyl)-3-benzyl-4-(hydroxymethyl)imidazolidin-2-one]",7.70 to 8.68
2,"CCc1nc(N2CCN(C(CO)c3cccc(OC)c3)C2=O)ccc1-c1cn[nH]c1 (single isomer, unassigned) [Example 158, 1-(6-ethyl-5-(1H-pyrazol-4-yl)pyridin-2-yl)-3-(2-hydroxy-1-(3-methoxy-phenyl)ethyl) imidazolidin-2-one]",6.70 to 7.70
3,"COc1cc(F)ccc1Cn1ccn(-c2ccc(-c3cn[nH]c3)c(OC)n2)c1=O [Example 383, 1-(4-fluoro-2-methoxybenzyl)-3-(6-methoxy-5-(1H-pyrazol-4-yl)pyridin-2-yl)-1H-imidazol-2(3H)-one]",6.70 to 7.70
4,"COc1cccc(CN2C(=O)N(c3ccc(-c4cn[nH]c4)cc3)CC2CO)c1 (single isomer, unassigned; (-)) [Example 43, (−)-1-(4-(1H-Pyrazol-4-yl)phenyl)-4-(hydroxymethyl)-3-(3-methoxybenzyl)imidazolidin-2-one]",> 8.70
5,"COc1cccc(C(C)N2CCN(c3cc(C)c(-c4cn[nH]c4)cn3)C2=O)c1 (single isomer, unassigned) [Example 470, 1-(1-(3-methoxyphenyl)ethyl)-3-(4-methyl-5-(1H-pyrazol-4-yl)pyridin-2-yl)imidazolidin-2-one]",6.70 to 7.70
6,"CCC1CN(c2ccc(-c3cn[nH]c3)cc2)C(=O)N1Cc1cccc(OCC2CC2)c1 (stereo not shown) [Example 177, 1-(4-(1H-pyrazol-4-yl)phenyl)-3-(3-(cyclo-propyl-methoxy)-benzyl)-4-ethyl-imidazolidin-2-one]",6.70 to 7.70
7,"COc1cc(Cn2ccn(-c3ccc(-c4cn[nH]c4)cc3)c2=O)ccc1F [Example 407, 1-(4-(1H-pyrazol-4-yl)phenyl)-3-(4-fluoro-3-methoxybenzyl)-1H-imidazol-2(3H)-one]",6.70 to 7.70
8,"COc1cccc(Cn2ccn(-c3ccc(-c4cn[nH]c4)c(OC)c3)c2=O)c1 [Example 342, 1-(3-methoxy-4-(1H-pyrazol-4-yl)phenyl)-3-(3-methoxybenzyl)-1H-imidazol-2(3H)-one]",> 8.70
9,"CCOc1cccc(C(C)n2ccn(-c3ccc(-c4cn[nH]c4)c(CC)n3)c2=O)c1 (single isomer, unassigned) [Example 364, 1-(1-(3-ethoxyphenyl)ethyl)-3-(6-ethyl-5-(1H-pyrazol-4-yl)pyridin-2-yl)-1H-imidazol-2(3H)-one]",6.70 to 7.70
10,"COc1cccc(CN2CCN(c3ccc(-c4ccnc5[nH]ccc45)cc3)C2=O)c1 [Example 65, 1-(4-(1H-Pyrrolo[2,3-b]pyridin-4-yl)phenyl)-3-(3-methoxybenzyl)imidazolidin-2-one]",7.70 to 8.68
11,"COc1cc(F)cc(CN2CCN(c3ccc(-c4cn[nH]c4)c(C4CC4)c3)C2=O)c1 [Example 469, 1-(3-cyclopropyl-4-(1H-pyrazol-4-yl)phenyl)-3-(3-fluoro-5-methoxybenzyl)imidazolidin-2-one]",6.70 to 7.70
12,"O=C1N(c2ccc(-c3cn[nH]c3)cc2)C[C@@H](CO)N1Cc1cccc(OCC2CC2)c1 [Example 476, (S)-1-(4-(1H-pyrazol-4-yl)phenyl)-3-(3-(cyclopropylmethoxy)benzyl)-4-(hydroxymethyl)imidazolidin-2-one]",7.70 to 8.68
13,"COc1cc(F)cc(C(C)n2ccn(-c3ccc(-c4cn[nH]c4)cc3)c2=O)c1 (single isomer, unassigned) [Example 366, 1-(4-(1H-pyrazol-4-yl)phenyl)-3-(1-(3-fluoro-5-methoxyphenyl)ethyl)-1H-imidazol-2(3H)-one]",> 8.70
14,"O=C1N(Cc2ccccc2)CCN1c1ccc(-c2cn[nH]c2)cc1 [Example 3, 1-(4-(1H-pyrazol-4-yl)phenyl)-3-benzylimidazolidin-2-one]",7.70 to 8.68
15,"COc1cccc(C(C)N2C(=O)N(c3ccc(-c4cn[nH]c4)cc3)CC2(C)C)c1 (single isomer, unassigned) [Example 146, 1-(4-(1H-pyrazol-4-yl)phenyl)-3-(1-(3-methoxy-phenyl)-ethyl)-4,4-dimethyl-imidazolidin-2-one]",6.70 to 7.70
16,"O=c1n(Cc2cccc(OCC3CC3)c2)ccn1-c1ccc(-c2cn[nH]c2)cn1 [Example 347, 1-(5-(1H-pyrazol-4-yl)pyridin-2-yl)-3-(3-(cyclopropylmethoxy)benzyl)-1H-imidazol-2(3H)-one]",6.70 to 7.70
17,"COc1cccc(CN2CCN(c3ccc(-c4ccncc4F)c(C)n3)C2=O)c1 [Example 205, 1-(3′-fluoro-2-methyl-[3,4′-bipyridin]-6-yl)-3-(3-methoxy-benzyl) imidazolidin-2-one]",5.70 to 6.70
18,"COc1cccc(CN2CCN(c3ccc(-c4c[nH]nc4C)c(OC)n3)C2=O)c1 [Example 320, 1-(6-methoxy-5-(5-methyl-1H-pyrazol-4-yl)pyridin-2-yl)-3-(3-methoxybenzyl)imidazolidin-2-one]",7.70 to 8.68
19,"COc1ccc(F)cc1CN1CCN(c2ccc(-c3cn[nH]c3)c(OC)n2)C1=O [Example 222, 1-(5-fluoro-2-methoxybenzyl)-3-(6-methoxy-5-(1H-pyrazol-4-yl)pyridin-2-yl)imidazolidin-2-one]",7.70 to 8.68
20,"COc1ccc(F)cc1CN1CCN(c2ccc(-c3cn[nH]c3)cc2)C1=O [Example 119, 1-(4-(1H-pyrazol-4-yl)phenyl)-3-(5-fluoro-2-methoxybenzyl)imidazolidin-2-one]",6.70 to 7.70

# The remaining lines, values ahead:
row,pIC50,Compound
1,5.70 to 6.70,"COc1ccc(CN2CCN(c3ccc(-c4cn[nH]c4)cc3)C2=O)cc1F [Example 117, 1-(4-(1H-pyrazol-4-yl)phenyl)-3-(3-fluoro-4-methoxybenzyl)imidazolidin-2-one]"
2,7.70 to 8.68,"CCNC(=O)C(c1cccc(OC)c1)N1CCN(c2ccc(-c3cn[nH]c3)cc2)C1=O (single isomer, unassigned) [Example 289, 2-(3-(4-(1H-Pyrazol-4-yl)phenyl)-2-oxoimidazolidin-1-yl)-N-ethyl-2-(3-methoxyphenyl)acetamide]"
3,6.70 to 7.70,"O=c1n(CCc2ccccc2F)ccn1-c1ccc(-c2cn[nH]c2)cc1 [Example 330, 1-(4-(1H-pyrazol-4-yl)phenyl)-3-(2-fluorophenethyl)-1H-imidazol-2(3H)-one]"
4,6.70 to 7.70,"CCOC(=O)C1CN(Cc2ccccc2)C(=O)N1c1ccc(-c2cn[nH]c2)cc1 (stereo not shown) [Example 29, Ethyl 3-(4-(1H-pyrazol-4-yl)phenyl)-1-benzyl-2-oxoimidazolidine-4-carboxylate]"
5,7.70 to 8.68,"O=C1N(CCc2ccccc2)CCN1c1ccc(-c2cn[nH]c2)cc1 [Example 1, 1-(4-(1H-Pyrazol-4-yl)phenyl)-3-phenethylimidazolidin-2-one]"
6,7.70 to 8.68,"COc1cc(F)cc(C(C)n2ccn(-c3ccc(-c4cn[nH]c4)cn3)c2=O)c1 (single isomer, unassigned) [Example 393, 1-(5-(1H-pyrazol-4-yl)pyridin-2-yl)-3-(1-(3-fluoro-5-methoxyphenyl)ethyl)-1H-imidazol-2(3H)-one]"
7,5.70 to 6.70,"CCOc1cccc(C(C)n2ccn(-c3ccc(-c4cn[nH]c4)cc3)c2=O)c1 (single isomer, unassigned) [Example 368, 1-(4-(1H-pyrazol-4-yl)phenyl)-3-(1-(3-ethoxyphenyl)ethyl)-1H-imidazol-2(3H)-one]"
8,7.70 to 8.68,"COc1cccc(C(CO)N2CCN(c3ccc(-c4cn[nH]c4)c(F)c3)C2=O)c1 (stereo not shown) [Example 463, 1-(3-fluoro-4-(1H-pyrazol-4-yl)phenyl)-3-(2-hydroxy-1-(3-methoxyphenyl)ethyl)imidazolidin-2-one]"
9,> 8.70,"COc1nc(N2CCN(Cc3cccc(F)c3)C2=O)ccc1-c1cn[nH]c1 [Example 226, 1-(3-fluorobenzyl)-3-(6-methoxy-5-(1H-pyrazol-4-yl)pyridin-2-yl)imidazolidin-2-one]"
10,6.70 to 7.70,"CC(c1cccc(OCC2CC2)c1)n1ccn(-c2ccc(-c3cn[nH]c3)cc2)c1=O (single isomer, unassigned) [Example 357, 1-(4-(1H-pyrazol-4-yl)phenyl)-3-(1-(3-(cyclopropylmethoxy)phenyl)ethyl)-1H-imidazol-2(3H)-one]"
11,5.70 to 6.70,"COc1cccc(C(C(=O)O)n2ccn(-c3ccc(-c4cn[nH]c4)c(OC)c3)c2=O)c1 (stereo not shown) [Example 352, 2-(3-(3-methoxy-4-(1H-pyrazol-4-yl)phenyl)-2-oxo-2,3-dihydro-1H-imidazol-1-yl)-2-(3-methoxyphenyl)acetic acid]"
12,7.70 to 8.68,"COc1cccc(CN2CCN(c3ccc(-c4ccncc4F)c(OC)n3)C2=O)c1 [Example 316, 1-(3′-Fluoro-2-methoxy-[3,4′-bipyridin]-6-yl)-3-(3-methoxybenzyl)imidazolidin-2-one]"
13,> 8.70,"COc1cccc(C(C)n2ccn(-c3ccc(-c4cn[nH]c4)cn3)c2=O)c1 (single isomer, unassigned) [Example 355, 1-(5-(1H-pyrazol-4-yl)pyridin-2-yl)-3-(1-(3-methoxyphenyl)ethyl)-1H-imidazol-2(3H)-one]"
14,7.70 to 8.68,"COc1cc(CN2CCN(c3ccc(-c4cn[nH]c4)c(C)c3)C2=O)ccc1F [Example 282, 1-(4-fluoro-3-methoxybenzyl)-3-(3-methyl-4-(1H-pyrazol-4-yl)-phenyl)imidazolidin-2-one]"
15,5.70 to 6.70,"COc1cccc(CN2C(=O)N(c3ccc(-c4cn[nH]c4)c(OC)c3)CC2CO)c1 (single isomer, unassigned) [Example 135, 4-(hydroxy-methyl)-1-(3-methoxy-4-(1H-pyrazol-4-yl)phenyl)-3-(3-methoxy-benzyl) imidazolidin-2-one]"
16,> 8.70,"COc1cccc(CN2C(=O)N(c3ccc(-c4cn[nH]c4)cc3)CC2CO)c1 (single isomer, unassigned; (+)) [Example 42, (+)-1-(4-(1H-Pyrazol-4-yl)phenyl)-4-(hydroxymethyl)-3-(3-methoxybenzyl)imidazolidin-2-one]"
17,7.70 to 8.68,"COc1cc(C(C)n2ccn(-c3ccc(-c4cn[nH]c4)cc3)c2=O)ccc1F (single isomer, unassigned) [Example 391, 1-(4-(1H-pyrazol-4-yl)phenyl)-3-(1-(4-fluoro-3-methoxyphenyl)ethyl)-1H-imidazol-2(3H)-one]"
